Assays:
[1] = test system: GUCY2C-9C9 colon cancer cells; assay: in vivo activity of anti GUCY2C ADCs (FIG. 15); details: anti GUCY2C antibody drug conjugates, DAR=4.0˜4.2, one time administration, 3.0 mg/Kg, over 20 days, compared with anti GUCY2C antibody-GGFG-Dxd
C4-2B cell line = type: cell-based; details: 120 hours incubation, MTT, n = DAR given with each label
Text: The cell lines used in the cytotoxicity assays were: C4-2B Cells which was obtained from ATCC through license agreement with MD Anderson Cancer Center, Houston, TX, USA. 22RV1, A549, U87, NCI-N87, MKN-7, BxPC-3, JIMT-1, MDA-MB-231, SU86.86, SW1990, OVCAR-3, Calu-3, A431, AsPC-1, CFPAC-1, DMS53, HCC827 and NCI-H1975 cells were purchased from ATCC, Nanjing Cobioer and The Cell Bank of Shanghai Institute of Biochemistry and Cell Biology, and the others. C4-2B and PC-3-4H7 are both Steap1 and PSMA antigen high express cells, but medium expressed of both B7H3 and DLL3 antigens. 22RV1 is low express cells for Steap1, PSMA, B7H3 and DLL3 antigens. U87 is glioblastoma (GBM) cells, NCI-N87 and MKN-7 cell line are stable models of the gastric epithelium. A431 is human epidermoid carcinoma. JIM-1 is trastuzumab-resistant Her2 breast tumor cells. SU86.86, SW1990, CFPAC-1 and AsPC-1 are pancreatic cancer cell lines. OVCAR-3 is ovarian cancer cell lines. Calu-3, HCC827 and NCI-H1975 are a human lung adenocarcinoma. All these cells were grown according to the provider manuals. To run the assay, the cells (180 μl, 6000 cells) were added to each well in a 96-well plate and incubated for 24 hours at 37° C. with 5% CO2. Next, the cells were treated with test compounds (20 μl) at various concentrations in appropriate cell culture medium (total volume, 0.2 mL). The control wells contain cells and the medium but lack the test compounds. The plates were incubated for 120 hours at 37° C. with 5% CO2. MTT (5 mg/mL) was then added to the wells (20 μl) and the plates were incubated for 1.5 hr at 37° C. The medium was carefully removed and DMSO (180 μl) was added afterward. After it was shaken for 15 min, the absorbance was measured at 490 nm and 570 nm with a reference filter of 620 nm. The inhibition % was calculated according to the following equation: […]

C4-2B cells = assay: affinities against C4-2B cells (FIG. 7); type: binding; details: C4-2B cells highly express both Steap1 and PSMA antigens
PC-3-4B9 cells = assay: affinities against PC-3-4B9 cells (FIG. 8); type: binding; details: PC-3-4B9 only express highly PSMA antigens
PC-3-4G5 cells = assay: affinities against PC-3-4G5 cells (FIG. 9); type: binding; details: PC-3-4G5 only express highly Steap1 antigens
Text: Since PC-3-4G5 only express highly Steap1 antigens, thus both prepared vandortuzumab and the vandortuzumab-C002 had the good affinity for PC-3-4G5 cells.

PC-3 cells = assay: affinities against nature PC-3 cells (FIG. 10); type: binding; details: PC-3 cells do not have either Steap1 or PSMA antigens

Molecule: CC[C@@]1(O)C(=O)OCc2c1cc1n(c2=O)Cc2c-1nc1cc(F)c(C)c3c1c2[C@@H](NC(=O)OCc1ccc(NC(=O)[C@H](C)NC(=O)[C@@H](NC(=O)[C@H](CCC(=O)N[C@H](C(=O)N[C@@H](C)C(=O)NC(=O)[C@H](CCC(=O)NC(c2ccccc2)(c2ccccc2)c2ccccc2)NC(=O)[C@@H]2CCCN2C(=O)[C@@H]2CCCN2C(=O)[C@H](CCCNC(=N)NC(c2ccccc2)(c2ccccc2)c2ccccc2)NC(=O)[C@H](CCCNC(=N)NC(c2ccccc2)(c2ccccc2)c2ccccc2)NC(=O)[C@H](CCCNC(=N)NC(c2ccccc2)(c2ccccc2)c2ccccc2)NC(=O)[C@H](CCC(=O)NC(c2ccccc2)(c2ccccc2)c2ccccc2)NC(=O)[C@H](CCCNC(=N)NC(c2ccccc2)(c2ccccc2)c2ccccc2)NC(=O)[C@H](CCCNC(=N)NC(c2ccccc2)(c2ccccc2)c2ccccc2)NC(=O)[C@H](CCCCNC(=O)OC(C)(C)C)NC(=O)[C@H](CCCCNC(=O)OC(C)(C)C)NC(=O)[C@H](CCCNC(=N)NC(c2ccccc2)(c2ccccc2)c2ccccc2)NC(=O)CNC(=O)OCC2c4ccccc4-c4ccccc42)C(C)C)NC(=O)CCCNC(=O)[C@H](CCCCNC(=O)COCCOCCOCCOCCOCCOCCOCCOCCOCCOC)NC(=O)CCCN2C(=O)C=CC2=O)C(C)C)cc1C(=O)NCCOCCOCCOCCOCCOCCOCCOCCOC)CC3 [compound 570]
- in vivo antitumor activity over time [1]: better antitumor activity than the regular GGFG-Dxd conjugate

Molecule: CCc1c2c(nc3cc(F)c(NC(=O)CNC(=O)[C@H](C)NC(=O)[C@@H](NC(=O)[C@H](CCC(=O)NCCOCCOCCNC(=O)c4ccc(C(=O)NCCCCC(=O)NCCCC[C@H](NC(=O)N[C@@H](CCC(=O)O)C(=O)O)C(=O)O)cc4)NC(=O)CCCN4C(=O)CC(S)C4=O)C(C)C)cc13)-c1cc3c(c(=O)n1C2)COC(=O)[C@]3(O)CC (stereo partly drawn) [C040]
- IC50 (C4-2B cell line): 4.27 nM

Molecule: CC[C@@]1(O)C(=O)OCc2c1cc1n(c2=O)Cc2c-1nc1cc(F)c(C)c3c1c2[C@@H](NC(=O)OCC[N+](C)(C)Cc1ccc(NC(=O)[C@H](C)NC(=O)[C@@H](NC(=O)[C@H](CCC(=O)N(CCNC(=O)CCOCCOCCNC(=O)c2ccc(C(=O)NCCCCC(=O)NCCCC[C@H](NC(=O)N[C@@H](CCC(=O)O)C(=O)O)C(=O)O)cc2)CCNC(=O)CCOCCOCCNC(=O)c2ccc(C(=O)NCCCCC(=O)NCCCC[C@H](NC(=O)N[C@@H](CCC(=O)O)C(=O)O)C(=O)O)cc2)NC(=O)CCCN2C(=O)CC(S)C2=O)C(C)C)cc1)CC3 (stereo partly drawn) [C045]
- IC50 (C4-2B cell line): 6.76 nM

Molecule: CC[C@@]1(O)C(=O)OCc2c1cc1n(c2=O)Cc2c-1nc1cc(F)c(C)c3c1c2[C@@H](NC(=O)[C@H](C)NC(=O)[C@@H](NC(=O)[C@H](CCC(=O)NCCOCCOCCNC(=O)c1ccc(C(=O)NCCCCC(=O)NCCCC[C@H](NC(=O)N[C@@H](CCC(=O)O)C(=O)O)C(=O)O)cc1)NC(=O)C1CCN(C(=O)CS)CC1)C(C)C)CC3 [C060]
- IC50 (C4-2B cell line): 7.57 nM

Molecule: CC[C@@]1(O)C(=O)OCc2c1cc1n(c2=O)Cc2c-1nc1cc(F)c(C)c3c1c2[C@@H](NC(=O)OCC[N+](C)(C)Cc1ccc(NC(=O)[C@H](C)NC(=O)[C@@H](NC(=O)[C@H](CCC(=O)NCCOCCOCCNC(=O)c2ccc(C(=O)NCCCCC(=O)NCCCC[C@H](NC(=O)N[C@@H](CCC(=O)O)C(=O)O)C(=O)O)cc2)NC(=O)CCCN2C(=O)CC(S)C2=O)C(C)C)cc1)CC3 (stereo partly drawn) [C044]
- IC50 (C4-2B cell line): 7.87 nM

B1: vandortuzumab-C002 (conjugate, chains of the INN, looked up)
VH: EVQLVESGGGLVQPGGSLRLSCAVSGYSITSDYAWNWVRQAPGKGLEWVGYISNSGSTSYNPSLKSRFTISRDTSKNTLYLQMNSLRAEDTAVYYCARERNYDYDDYYYAMDYWGQGTLVTVSS
VL: DIQMTQSPSSLSASVGDRVTITCKSSQSLLYRSNQKNYLAWYQQKPGKAPKLLIYWASTRESGVPSRFSGSGSGTDFTLTISSLQPEDFATYYCQQYYNYPRTFGQGTKVEIK
modifications: drug conjugate C002
- affinity against C4-2B cells (C4-2B cells): better affinity for the C4-2B cells than the naked (unconjugated) antibodies
- affinity against PC-3-4B9 cells (PC-3-4B9 cells): had the affinity
- affinity against PC-3-4G5 cells (PC-3-4G5 cells): good affinity
- affinity against nature PC-3 cells (PC-3 cells): not able to show the affinity at all
